{
  "source": "patent US10647725B2",
  "about": "“Anti-infective 2-aminothiophenes” (priority 2016, dated 2020)",
  "key": {"Mtb H37Rv [1]": {"tested_on": "Mtb H37Rv", "test": "modified 96-well microplate Alamar blue assay (MABA), growth inhibition", "type": "cell-based, Mycobacterium tuberculosis", "settings": "for growth inhibition activity in words: SAR discussion; for MIC: Mycobacterium tuberculosis, H37RV, Mtb H37Rv"}, "Mtb H37Rv [2]": {"tested_on": "Mtb H37Rv", "test": "microbe, parasite or virus in culture", "type": "cell-based", "settings": "Mycobacterium tuberculosis"}, "Mtb H37Rv [3]": {"tested_on": "Mtb H37Rv", "test": "minimum bactericidal concentration (MBC), kill kinetics over 21 days", "type": "cell-based", "settings": "Mycobacterium tuberculosis, 504 h, aerobic, 7H9-Tw-OADC medium, 2-log kill in 21 days"}, "[4]": {"tested_on": "THP-1 human monoocytic cell line", "test": "cytotoxicity towards PMA-differentiated THP-1 cells (CellTiter-Glo)", "type": "cell-based"}, "[5]": {"tested_on": "autoluminescent Mtb strain derived from Mtb H37Rv in THP-1 cells", "test": "microbe, parasite or virus in culture", "type": "cell-based", "settings": "Mycobacterium tuberculosis; for IC50: THP-1, 72 h, read-out: IC50 intracellular activity"}, "[6]": {"tested_on": "mycolic acid biosynthesis in Mtb", "test": "mycolic acid biosynthesis, [1,2-14C]acetate labeling, TLC and autoradiography", "type": "cell-based, Mycobacterium tuberculosis", "settings": "0.4-4 μg/ml, 16 h"}, "Mtb H37Rv mc26206": {"tested_on": "Mtb H37Rv mc26206", "test": "microbe, parasite or virus in culture", "type": "cell-based", "settings": "Mycobacterium tuberculosis"}, "Mycobacterium abscessus": {"tested_on": "Mycobacterium abscessus", "test": "MIC against Mycobacterium abscessus, OD590", "settings": "Mycobacteroides abscessus", "protocol": "The activity of compounds against Mycobacterium abscessus and Mycobacterium avium was assessed under aerobic conditions by determining the minimum inhibitory concentration of compound (MIC). The strains were M. abscessus subsp. bollettii 103 and M. avium subsp. avium 2285 (S). The assay was based on measurement of growth in liquid medium of each strain where the readout is optical density (OD) or metabolic activity (using Alamar blue).\nThe MIC of compound against Mycobacterium abscessus and Mycobacterium avium was determined by measuring bacterial growth in the presence of test compounds. Compounds were prepared as 20-point two-fold serial dilutions in DMSO and diluted into 7H9-Tw-OADC medium in 96-well plates with a final DMSO concentration of 2%. The highest concentration of compound was 200 μM where compounds were soluble in DMSO at 10 mM. Each plate included assay controls for background (medium/DMSO only, no bacterial cells), zero growth (100 μM rifampicin) and maximum growth (DMSO only), as well as a rifampicin dose response curve.\nFor Mycobacterium abscessus, plates were inoculated with M. abscessus and incubated for 3 days at 37° C.; growth was measured by OD590. […] Rifampicin was included once in each run. […] If no point reached 75% inhibition, the MIC was reported as >maximum concentration tested."}},
  "note": "“Also recorded” adds a separate entry of the source.",
  "data": [
    {"smiles": "CCOC(=O)c1c(NC(=O)c2c(F)c(F)c(F)c(F)c2F)sc2c1CCN(C(=O)OC(C)(C)C)C2", "note": "[4{2,3,0}, 6-(Tert-butyl) 3-ethyl 2-(perfluorobenzamido)-4,7-dihydrothieno[2,3-c]pyridine-3,6(5H)-dicarboxylate]", "values": [
      {"measurement": "growth inhibition activity in words", "setting": "Mtb H37Rv [1]", "value": "inactive"}
    ]},
    {"smiles": "CCOC(=O)c1c(NC(=O)c2c(F)c(F)c(F)c(F)c2F)sc2c1CCN(CC)C2", "note": "[4{3,3,0}, ethyl 6-ethyl-2-(perfluorobenzamido)-4,5,6,7-tetrahydrothieno[2,3-c]pyridine-3-carboxylate]", "values": [
      {"measurement": "increase in potency compared to compound 4{4,3,0}", "setting": "Mtb H37Rv [1]", "value": 40, "unit": "fold"},
      {"measurement": "MIC", "setting": "Mtb H37Rv [2]", "value": 0.23, "unit": "µM"},
      {"measurement": "MBC", "setting": "Mtb H37Rv [3]", "value": "< 5", "unit": "µM"},
      {"measurement": "IC50", "setting": "[4]; Homo sapiens, 72 h, THP-1 macrophage-like cells, 3 days, read-out: IC50 (concentration causing a 50% loss in viability)", "value": 6.2, "unit": "µM"},
      {"measurement": "macrophage viability IC50 relative to the MIC", "setting": "[4]; times higher than the MIC", "value": 27, "unit": "times"},
      {"measurement": "IC50", "setting": "[5]", "value": 5.6, "unit": "µM"},
      {"measurement": "IC90", "setting": "[5]; THP-1, read-out: IC90 intracellular activity", "value": 9.75, "unit": "µM"},
      {"measurement": "effect on synthesis of mycolic acids (TMM, TDM, mAG-attached mycolates)", "setting": "[6]", "value": "strongly inhibits the biosynthesis of all forms of mycolic acid; also recorded: strongly inhibits the synthesis of all forms of mycolic acids"},
      {"measurement": "MIC", "setting": "Mtb H37Rv mc26206", "value": 0.4, "unit": "µg/mL"},
      {"measurement": "MIC", "setting": "Mycobacterium abscessus", "value": 1.11, "unit": "µg/mL"}
    ]},
    {"smiles": "CCOC(=O)c1c(NC(=O)c2cc(C(F)(F)F)cc(C(F)(F)F)c2)sc2c1CCN(CC)C2", "note": "[4{3,4,0}, Ethyl 2-(3,5-bis(trifluoromethyl)benzamido)-6-ethyl-4,5,6,7-tetrahydrothieno[2,3-c]pyridine-3-carboxylate]", "values": [
      {"measurement": "MIC", "setting": "Mtb H37Rv [1]; read-out: MIC", "value": "> 100", "unit": "µg/mL"}
    ]},
    {"smiles": "CCN1CCc2c(sc(NC(=O)c3cc(C(F)(F)F)cc(C(F)(F)F)c3)c2C(=O)NCc2ccc(C)cc2)C1", "note": "[4{3,4,3}, 2-(3,5-Bis(trifluoromethyl)benzamido)-6-ethyl-N-(4-methylbenzyl)-4,5,6,7-tetrahydrothieno[2,3-c]pyridine-3-carboxamide]", "values": [
      {"measurement": "MIC", "setting": "Mtb H37Rv [1]", "value": "≥ 200", "unit": "µg/mL"}
    ]},
    {"smiles": "CCOC(=O)c1c(NC(=O)c2ccccc2)sc2c1CCCC2", "note": "[4{4,2,0}]", "values": [
      {"measurement": "growth inhibition activity in words", "setting": "Mtb H37Rv [1]", "value": "no activity"}
    ]},
    {"smiles": "CCOC(=O)c1cc(-c2ccccc2)sc1NC(=O)c1c(F)c(F)c(F)c(F)c1F", "note": "[4{5,3,0}, Ethyl 2-(perfluorobenzamido)-5-phenylthiophene-3-carboxylate]", "values": [
      {"measurement": "MIC", "setting": "Mtb H37Rv [1]; read-out: MIC", "value": "> 100", "unit": "µg/mL"}
    ]},
    {"smiles": "NNC(=O)c1ccncc1", "note": "[INH, Isoniazid, reference compound]", "values": [
      {"measurement": "IC50", "setting": "[5]", "value": 0.24, "unit": "µM"}
    ]}
  ]
}
